Reference: paper PMC8007633, “The effect of Aspalathus linearis (Burm.f.) R.Dahlgren and its compounds on tyrosinase and melanogenesis” (Scientific Reports, 2021)
Converted amounts (≈) assume the structure as drawn. Where two headings read alike, the source gives them in different places. Starred links: 1 amine or outer side, 2 acyl side, 3 side chain; linkers in the order of their positions; H or OH if unused. Positions of bridges follow the written chain, without caps; N, C: chain ends. Non-standard residues stand in square brackets, D forms with d. Residues, ends and D or L forms follow the SMILES beside them. Chains are numbered I, II in the order given. Actinocin(9to1) = Cc1c2oc3c(C)ccc(C(=O)[*:1])c3nc-2c(C(=O)[*:2])c(N)c1=O; NMeV = CN[C@H](C(=O)O)C(C)C; Sar = CNCC(=O)O

How the values were obtained:
mushroom tyrosinase [1] = molecular target: T1, mushroom tyrosinase (Agaricus bisporus, UniProt C7FF04); experiment: Diphenolase tyrosinase assay (enzymatic rate, L-dopa as substrate); format: biochemical; conditions: for Tyrosinase activity at 200 µg/mL (fold increase): rate over 30 min at 37 °C versus vehicle control; for Tyrosinase stimulation, fold increase: enzyme rate of the sample divided by enzyme rate of the vehicle control
T1 construct: purchased Sigma-Aldrich Co. LLC, St. Louis, MO, USA
T1 sequence (C7FF04 1-392 limits assumed): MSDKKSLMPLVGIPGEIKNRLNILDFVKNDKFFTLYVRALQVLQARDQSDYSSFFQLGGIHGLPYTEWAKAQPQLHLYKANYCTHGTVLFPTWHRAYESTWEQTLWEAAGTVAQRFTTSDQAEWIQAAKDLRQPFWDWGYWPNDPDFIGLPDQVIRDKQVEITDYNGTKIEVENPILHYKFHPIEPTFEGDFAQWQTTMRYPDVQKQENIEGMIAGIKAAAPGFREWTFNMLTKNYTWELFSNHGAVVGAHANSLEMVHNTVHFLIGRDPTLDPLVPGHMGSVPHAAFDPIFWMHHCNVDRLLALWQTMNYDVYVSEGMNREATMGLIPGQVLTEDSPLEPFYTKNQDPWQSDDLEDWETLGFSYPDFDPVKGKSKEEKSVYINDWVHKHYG

mushroom tyrosinase [2] = molecular target: T1, mushroom tyrosinase; experiment: Tyrosinase enzyme kinetics: change in L-dopa kinetics, type of inhibition; format: biochemical; conditions: for VMAX, Michaelis-Menten plot data of the inhibitors (Figure S 3): L-dopa with inhibitor; for Change in L-dopa kinetics, Vmax: maximum enzyme velocity; for Type of inhibition: enzyme kinetic studies
[3] = tested on: human melanoma cells (UCT-Mel1); experiment: Antiproliferative assay (Presto blue, 72 h); format: cell-based; conditions: for IC50 / EC50: Homo sapiens; for EC50 / HillSlope, sigmoidal dose-response best-fit (Table S 10) / LogEC50, sigmoidal dose-response best-fit (Table S 10): variable slope; for EC50: bottom 0, top 100, read-out: EC50, sigmoidal dose-response best-fit (Table S 10)
tyrosinase [4] = molecular target: T2, tyrosinase (Agaricus bisporus, UniProt C7FF04); experiment: Tyrosinase enzyme kinetics in the absence of the substrate (subversive substrate properties); format: biochemical, mushroom; conditions: for Vmax (substrate properties): Table 3
T2 construct: purchased Sigma-Aldrich Co. LLC, St. Louis, MO, USA
T2 sequence (C7FF04 1-392 limits assumed): as above

[5] = tested on: human melanocytes (UCT-Mel-1); experiment: Masson Fontana assay (melanin produced); format: cell-based; conditions: for Increase in melanin produced: 265 µM (aspalathin 119.82 µg/mL, catechin 76.92 µg/mL); for Mean Diff., Negative vs sample, melanin produced (Table S 11): Dunnett's multiple comparison versus untreated melanocytes
Procedure: The cells were cultured as previously described. The silver nitrate solution was prepared, as described by Kwon-Chung et al.[34]. The cells were fixed and treated with the AgNO3 working solution for 40 min at 56 °C (in the dark). Following incubation, the cells were treated with sodium thiosulphate (52.63 mg/mL) for 1 min and rinsed with water. The cells were counterstained using haematoxylin. The washed cells were dehydrated and fixed on microscope slides. Light microscopy images were taken using a Zeiss Primo Vert light microscope and analysed with ImageJ[34].

tyrosinase [6] = conditions: cited from earlier work; for IC50: read-out: Antityrosinase IC50, previously reported
[7] = Tyrosinase stimulation EC50 ± SD, relative EC50, 50% of maximal response
[8] = Tyrosinase stimulation EC50 ± SD, relative EC50, value in brackets
[9] = compound as substrate, absence of L-dopa
[10] = value in brackets, read-out: Antiproliferative IC50 (converted)

For `O=C(O)c1ccc(O)cc1` [4-Hydroxybenzoic acid (6), 4-hydroxy benzoic acid], the IC50 (mushroom tyrosinase [1]) was 1868 ± 9.34 µM, the “VMAX, Michaelis-Menten plot data of the inhibitors (Figure S 3)” value (“VMAX … of the inhibitors (Figure S 3)” below) (mushroom tyrosinase [2]) was 35.00 ± 1.84 µmol/min and the “Change in L-dopa kinetics, Vmax” value (mushroom tyrosinase [2]) was 35.00 ± 1.84 µM/min.

In the case of `Cc1c2oc3c(C)ccc(C(=O)N[C@@H]4C(=O)N[C@H](C(C)C)C(=O)N5CCC[C@H]5C(=O)N(C)CC(=O)N(C)[C@@H](C(C)C)C(=O)O[C@@H]4C)c3nc-2c(C(=O)N[C@@H]2C(=O)N[C@H](C(C)C)C(=O)N3CCC[C@H]3C(=O)N(C)CC(=O)N(C)[C@@H](C(C)C)C(=O)O[C@@H]2C)c(N)c1=O` [Actinomycin D, reference compound] (I: T[dV]P[Sar][NMeV] / II: T[dV]P[Sar][NMeV]; ester I:1-I:C, II:1-II:C; linker I:N-II:N via Actinocin(9to1)), the IC50 ([3]; 72 h, read-out: Antiproliferative IC50 ± standard deviation) is reported as 0.039 ± 0.002 µg/mL.

For `O=C(CCc1ccc(O)c(O)c1)c1c(O)cc(O)c(C2OC(CO)C(O)C(O)C2O)c1O` (stereo not drawn) [Aspalathin (1), aspalathin], the “Tyrosinase activity at 200 µg/mL (fold increase)” value (mushroom tyrosinase [1]) was 1.11 fold increase, the EC50 (mushroom tyrosinase [1]; [7]) was 265 µM and the EC50 (mushroom tyrosinase [1]; [8]) was 265 µM. The “Tyrosinase stimulation, fold increase” value (mushroom tyrosinase [1]) was 1.10 fold, the “Change in L-dopa kinetics, Vmax” value (mushroom tyrosinase [2]) was 68.73 ± 3.47 µM/min and the “Substrate catalytic efficiency, times lower than native substrate” value (tyrosinase [4]) was 3–4 times. The “Vmax (substrate properties)” value (tyrosinase [4]; [9]) was 68.7 (± 3.5) mOD/min, the IC50 ([3]; 72 h, concentration where 50% of the cells are viable, 72 h, read-out: Antiproliferative IC50 ± standard deviation) was > 200 µg/mL and the IC50 [3, 10] was 482 µM. For the same compound, the EC50 [3] was 218 µg/mL (≈ 481 µM), the “Antiproliferative IC50 ± standard deviation” value ([3]; concentration where 50% of the cells are viable, 72 h) was 217.75 ± 1.23 µg/mL and the “HillSlope, sigmoidal dose-response best-fit (Table S 10)” value [3] was -5.86. The “LogEC50, sigmoidal dose-response best-fit (Table S 10)” value [3] was 2.34, the “Increase in melanin produced” value ([5]; listed as Aspalathin) was “approximately 4.5%” and the “Increase in melanin produced” value ([5]; listed as aspalathin) was 4.5%. The “Mean Diff., Negative vs sample, melanin produced (Table S 11)” value [5] was -8.382.

For `O=C(O)/C=C/c1ccc(O)c(O)c1` [Caffeic acid (2), caffeic acid], the EC50 (mushroom tyrosinase [1]; [7]) was 228 µM, the EC50 (mushroom tyrosinase [1]; [8]) was 228 µM and the “Vmax (substrate properties)” value (tyrosinase [4]; [9]) was 120.9 (± 15.5) mOD/min.

For `Oc1cc(O)c2c(c1)O[C@H](c1ccc(O)c(O)c1)[C@@H](O)C2` [Catechin (3), (+)-catechin], the “Tyrosinase activity at 200 µg/mL (fold increase)” value (mushroom tyrosinase [1]) was 0.41 fold increase, the “Tyrosinase stimulation, fold increase” value (mushroom tyrosinase [1]) was 0.40 fold and the “Tyrosinase stimulation, fold increase” value (mushroom tyrosinase [1]; listed as catechin (3)) was 0.4 fold. For the same compound, the EC50 (mushroom tyrosinase [1]; relative EC50, 50% of maximal response, read-out: Tyrosinase stimulation EC50 ± SD (converted)) was 494 µM, the EC50 (mushroom tyrosinase [1]; relative EC50, value in brackets, read-out: Tyrosinase stimulation EC50 ± SD (converted)) was 494 µM and the “Change in L-dopa kinetics, Vmax” value (mushroom tyrosinase [2]) was 382.40 ± 7.03 µM/min. The “Substrate catalytic efficiency, times higher than native substrate L-dopa” value (tyrosinase [4]) was 4 times, the “VMAX, subversive substrates (Figure S 5)” value (tyrosinase [4]; absence of the substrate L-dopa) was 382.4 ± 7.03 µmol/min and the “Vmax (absence of the substrate)” value (tyrosinase [4]; compound as substrate) was 382.4 ± 7.0 µM/min. For the same compound, the “kcat (catalytic constant)” value (tyrosinase [4]; compound as substrate) was 229.7 s⁻¹, the Km (tyrosinase [4]; [9]) was 471 µM and the “Vmax (substrate properties)” value (tyrosinase [4]; [9]) was 382.4 (± 7.0) mOD/min. The IC50 ([3]; concentration where 50% of the cells are viable, 72 h, read-out: Antiproliferative IC50 ± standard deviation) was 166.3 ± 1.14 µg/mL, the IC50 [3, 10] was 573 µM and the EC50 [3] was 166 µg/mL (≈ 573 µM). For the same compound, the “HillSlope, sigmoidal dose-response best-fit (Table S 10)” value [3] was -3.06, the “LogEC50, sigmoidal dose-response best-fit (Table S 10)” value [3] was 2.22 and the “Masson Fontana % increase in melanin produced” value ([5]; 100 µg/mL, versus untreated cells) was 5.72%. The “Increase in melanin produced” value ([5]; listed as catechin) was 4.5%, the “Increase in melanin produced” value ([5]; listed as catechin (3)) was “approximately 4.5%” and the “Mean Diff., Negative vs sample, melanin produced (Table S 11)” value [5] was -15.08.

With `O=C(O)/C=C/c1ccccc1` [Cinnamic acid (4), cinnamic acid] the IC50 (mushroom tyrosinase [1]) was 943.6 ± 8.1 µM, the “Tyrosinase inhibitory activity in words” value (mushroom tyrosinase [1]) was “Moderate inhibitory activity” and the “VMAX … of the inhibitors (Figure S 3)” value (mushroom tyrosinase [2]) was 16.82 ± 0.37 µmol/min. For the same compound, the Type of inhibition (mushroom tyrosinase [2]) was “competitive inhibition” and the “Change in L-dopa kinetics, Vmax” value (mushroom tyrosinase [2]) was 16.82 ± 0.37 µM/min.

In the case of `COc1cc(/C=C/C(=O)O)ccc1O` [Ferulic acid (5), ferulic acid], the IC50 (mushroom tyrosinase [1]) is reported as > 1500 µM.

In the case of `O=c1c(O[C@@H]2O[C@H](CO)[C@@H](O)[C@H](O)[C@H]2O)c(-c2ccc(O)c(O)c2)oc2cc(O)cc(O)c12` [Isoquercitrin (7), isoquercitrin], the IC50 (mushroom tyrosinase [1]) is reported as > 646 µM and the Type of inhibition (mushroom tyrosinase [2]) is reported as “competitive inhibition”.

In the case of `N[C@@H](Cc1ccc(O)c(O)c1)C(=O)O` [L-dopa, reference compound], the “Change in L-dopa kinetics, Vmax” value (mushroom tyrosinase [2]) is reported as 22.82 ± 1.07 µM/min and the “Vmax (substrate properties)” value (tyrosinase [4]; [9]) is reported as 22.8 (± 1.1) mOD/min.

In the case of `O=C(/C=C/c1ccc(O)c(O)c1)O[C@H](Cc1ccc(O)c(O)c1)C(=O)O` [Rosmarinic acid (12), rosmarinic acid], the IC50 (mushroom tyrosinase [1]) is reported as 7.33 ± 3.33 µM, the “VMAX … of the inhibitors (Figure S 3)” value (mushroom tyrosinase [2]) is reported as 19.72 ± 1.01 µmol/min and the Type of inhibition (mushroom tyrosinase [2]) is reported as “competitive inhibition”. For the same compound, the IC50 (tyrosinase [6]) was 4 µM.

With `COc1cc(C(=O)O)cc(OC)c1O` [Syringic acid (13), syringic acid] the IC50 (mushroom tyrosinase [1]) was > 1510 µM.

For `O=c1cc(-c2ccc(O)cc2)oc2c([C@@H]3O[C@H](CO)[C@@H](O)[C@H](O)[C@H]3O)c(O)cc(O)c12` [Vitexin (15), vitexin], the IC50 (mushroom tyrosinase [1]) was > 694 µM.

In the case of `Oc1ccc(O)cc1` [hydroquinone], the IC50 (tyrosinase [6]) is given as 19.8 ± 1.05 µM.

In the case of `CCCOC(=O)c1cc(O)c(O)c(O)c1` [n-Propyl gallate (10), n-propyl gallate], the “Tyrosinase inhibitory activity in words” value (mushroom tyrosinase [1]) is reported as “Moderate inhibitory activity”, the IC50 (mushroom tyrosinase [1]; read-out: Tyrosinase inhibition IC50 ± SD) is reported as 534.9 ± 5.09 µM and the “VMAX … of the inhibitors (Figure S 3)” value (mushroom tyrosinase [2]) is reported as 20.56 ± 1.72 µmol/min. For the same compound, the Type of inhibition (mushroom tyrosinase [2]) was “non-competitive inhibition”.

In the case of `O=C(O)/C=C/c1ccc(O)cc1` [p-Coumaric acid (9), p-coumaric acid], the IC50 (mushroom tyrosinase [1]) is reported as 153 ± 7.01 µM, the “Tyrosinase inhibitory activity in words” value (mushroom tyrosinase [1]) is reported as “Moderate inhibitory activity” and the “VMAX … of the inhibitors (Figure S 3)” value (mushroom tyrosinase [2]) is reported as 17.71 ± 0.66 µmol/min. For the same compound, the Type of inhibition (mushroom tyrosinase [2]) was “competitive inhibition” and the “Change in L-dopa kinetics, Vmax” value (mushroom tyrosinase [2]) was 17.71 ± 0.66 µM/min.

In the case of `Oc1ccc(/C=C/c2cc(O)cc(O)c2)cc1` [resveratrol], the “Type of tyrosinase inhibition, well-known inhibitors” value (tyrosinase [6]) is given as “non-competitive” and the IC50 (tyrosinase [6]) is given as 27.7 ± 1.15 µM.
